Values of other authors, collected in patent US12115137B2, “Synergistic combinations of atorvastatin and cannabidiol (CBD)” (Indication BioScience LLC, priority 2016, dated 2024).
One block for each molecule: values may come before it.

What was measured:
[1] = oral, humans
CYP3A4 = CYP3A4 (Homo sapiens, UniProt P08684); conditions: Yamaori et al. 2011
CYP2C19 = CYP2C19 (Homo sapiens, UniProt P33261); conditions: Jiang et al. 2013
CYP2C9 = CYP2C9 (Homo sapiens, UniProt P11712); conditions: Jiang at 333 and references cited
[2] = with potent CYP3A4 inhibitors such as itraconazole
[3] = not given; remark: listed apart in the source

CYP2C9, sequence (P11712 whole entry): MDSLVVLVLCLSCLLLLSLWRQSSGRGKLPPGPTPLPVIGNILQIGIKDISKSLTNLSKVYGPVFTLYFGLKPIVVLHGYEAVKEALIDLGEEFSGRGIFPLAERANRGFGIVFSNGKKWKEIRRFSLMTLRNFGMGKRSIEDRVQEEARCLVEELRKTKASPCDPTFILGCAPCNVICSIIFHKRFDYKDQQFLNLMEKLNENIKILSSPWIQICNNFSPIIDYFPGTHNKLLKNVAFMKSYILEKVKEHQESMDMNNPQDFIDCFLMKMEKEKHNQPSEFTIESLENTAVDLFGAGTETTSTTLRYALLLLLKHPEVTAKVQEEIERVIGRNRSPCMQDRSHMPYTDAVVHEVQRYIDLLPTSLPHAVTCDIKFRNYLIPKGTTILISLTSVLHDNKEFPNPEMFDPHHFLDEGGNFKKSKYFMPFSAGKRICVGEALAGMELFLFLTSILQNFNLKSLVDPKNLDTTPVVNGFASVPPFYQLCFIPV
CYP3A4, sequence (P08684 whole entry): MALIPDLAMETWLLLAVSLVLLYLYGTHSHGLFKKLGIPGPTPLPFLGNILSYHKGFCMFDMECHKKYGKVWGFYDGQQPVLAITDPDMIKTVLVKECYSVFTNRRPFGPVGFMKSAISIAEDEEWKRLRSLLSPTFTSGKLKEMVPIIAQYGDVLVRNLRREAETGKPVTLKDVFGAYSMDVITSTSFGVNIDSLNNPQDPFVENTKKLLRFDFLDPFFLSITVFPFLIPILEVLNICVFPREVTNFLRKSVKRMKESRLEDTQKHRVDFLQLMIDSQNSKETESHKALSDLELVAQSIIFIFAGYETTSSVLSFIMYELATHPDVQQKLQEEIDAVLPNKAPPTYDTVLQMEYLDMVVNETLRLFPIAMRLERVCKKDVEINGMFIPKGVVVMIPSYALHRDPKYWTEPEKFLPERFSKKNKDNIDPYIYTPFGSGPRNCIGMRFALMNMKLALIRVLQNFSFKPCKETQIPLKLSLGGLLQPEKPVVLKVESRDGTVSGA
CYP2C19, sequence (P33261 whole entry): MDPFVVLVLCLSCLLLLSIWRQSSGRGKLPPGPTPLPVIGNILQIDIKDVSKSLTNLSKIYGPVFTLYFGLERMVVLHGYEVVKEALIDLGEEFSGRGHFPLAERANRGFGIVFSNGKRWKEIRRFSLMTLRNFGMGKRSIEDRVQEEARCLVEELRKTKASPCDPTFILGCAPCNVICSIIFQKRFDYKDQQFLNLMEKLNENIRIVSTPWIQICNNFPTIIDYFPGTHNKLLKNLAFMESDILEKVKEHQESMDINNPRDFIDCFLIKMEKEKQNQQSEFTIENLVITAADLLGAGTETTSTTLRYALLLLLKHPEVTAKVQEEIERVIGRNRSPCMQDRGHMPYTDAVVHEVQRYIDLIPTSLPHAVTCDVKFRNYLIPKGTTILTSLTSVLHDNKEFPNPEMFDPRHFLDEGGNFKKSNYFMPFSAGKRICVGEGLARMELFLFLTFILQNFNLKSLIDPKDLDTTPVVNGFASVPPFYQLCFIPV

SMILES: C=C(C)[C@@H]1CCC(C)=C[C@H]1c1c(O)cc(CCCCC)cc1O [CBD, 2-[(1R,6R)-6-isopropenyl-3-methylcyclohex-2-en-1-yl]-5-pentylbenzene-1,3-diol]
bioavailability of CBD administered orally [1]: approximately 6%
increase in plasma concentration of CBD (with ketoconazole, a strong inhibitor of CYP3A4): about two-fold
reduction of CBD levels (with rifampin, a CYP3A4 inducer): 50-60%
inhibition of CYP3A4 (CYP3A4): potent inhibitor
inhibition of CYP2C19 (CYP2C19): potent inhibitor
inhibition of CYP2C9 (CYP2C9): potent inhibitor

increase in statin serum concentration [2]: two- to four-fold
SMILES: CC(C)c1c(C(=O)Nc2ccccc2)c(-c2ccccc2)c(-c2ccc(F)cc2)n1CC[C@@H](O)C[C@@H](O)CC(=O)O [atorvastatin]

SMILES: COCc1c(C(C)C)nc(C(C)C)c(/C=C/[C@@H](O)C[C@@H](O)CC(=O)O)c1-c1ccc(F)cc1 [cerivastatin]
deaths attributed to kidney failure from drug-related rhabdomyolysis ([3]; before market withdrawal in 2001): 52 deaths
rate of fatal rhabdomyolysis relative to other approved statins ([3]; compared with other approved statins): ten times more common
